Experimental data from patent publication US8900590B2 (priority 2010, dated 2014).

System: H1N1 A/California/04/09
Type: in vivo, DBA/2 mice
Conditions: 18 days

With `CCOC(=O)C1=C[C@@H](OC(CC)CC)[C@H](NC(C)=O)[C@@H](N)C1` [oseltamivir] the animals survived was “no survival”.
